Series [1] has as its system HIV-1 variant containing the K103N/Y181C mutations. Description: Anti-HIV-1 activity against double-mutant strain in MT-2 cells (MTT). In kind it is cell-based.
The test system of a further series is WT HIV-1 (IIIB strain). The series is described as follows: Anti-HIV-1 activity, protection of infected MT-2 cells (MTT). Type of series: cell-based.
Another series relates to MT-2 human T-cells. The series is described as follows: Cytotoxicity, inhibition of MT-2 cell growth. In kind it is cell-based.
In series [2] the test system is HIV-1 variant containing the Y181C (Tyr181Cys) mutation. The series is described as follows: Anti-HIV-1 activity against variant strain in MT-2 cells (MTT). Type of series: cell-based.
The nature of series [3]: Cytotoxicity, inhibition of MT-2 cell growth. The following applies: human. In kind it is cell-based, human.
The mark [4] stands for this setting: Human immunodeficiency virus 1, MT2, read-out: EC50 K103N/Y181C.
Where [5] appears, read: Human immunodeficiency virus 1, IIIB, MT2, running text, read-out: EC50 against WT HIV-1.
Where [6] appears, read: Human immunodeficiency virus 1, MT2, read-out: EC50 Y181C.
The mark [7] stands for this setting: Table 5, MT-2 cells, read-out: EC50 K103N/Y181C.
[8] abbreviates: Table 4, catechol diether derivatives, MT-2 cells, read-out: Anti-HIV-1 Activity (EC50).
[9] abbreviates: Table 5, MT-2 cells, read-out: EC50 WT.
Where [10] appears, read: Table 4, MT-2 cells, read-out: Cytotoxicity (CC50).
Where [11] appears, read: Table 5, MT-2 cells, read-out: Average Cytotoxicity (CC50).
[12] abbreviates: Table 5, MT-2 cells, read-out: EC50 Y181C.
[13] abbreviates: Human immunodeficiency virus 1, IIIB, MT2, read-out: Anti-HIV Activity (EC50).

Where two headings read alike, the source gives them in different places. Bounds are passed on as bounds.

The term CC50 denotes the concentration at which the toxic effect on the cells reaches its halfway point.

Consider `N#Cc1cc(Cl)cc(Oc2ccc(Cl)cc2OCCn2ccc(=O)[nH]c2=O)c1` [Compound 25, 3-chloro-5-(4-chloro-2-(2-(2,4-dioxo-3,4-dihydropyrimidin-1(2H)-yl)ethoxy)phenoxy)benzonitrile], for which the EC50 worked out at 1700 nM in series [1] (setting [4]), 14 nM in the series with WT HIV-1 (IIIB strain) (setting [5]) and 520 nM in series [2] (setting [6]). The compound also came in with a CC50 in the series on MT-2 human T-cells (human) of over 100000 nM. In the series with MT-2 human T-cells (human), the “cytotoxicity, limit of the tested concentration range” value is over 100 µM.

Take `N#Cc1cc(Cl)cc(Oc2ccc(Cl)cc2OCCn2cc(Cl)c(=O)[nH]c2=O)c1` [Compound 27, 3-chloro-5-(4-chloro-2-(2-(5-chloro-2,4-dioxo-3,4-dihydropyrimidin-1(2H)-yl)ethoxy)phenoxy)benzonitrile]: the “ratio between variant and WT activities (K103N/Y181C / WT)” value in series [1] is recorded as 34 fold. In addition, the EC50 in series [1] (setting [4]) amounted to 570 nM; in series [1] (Human immunodeficiency virus 1, MT2, read-out: EC50 K103N/Y181C variant), 570 nM; in the series on WT HIV-1 (IIIB strain) (setting [5]), 17 nM; in series [2] (setting [6]) it was 240 nM; in series [2] (Human immunodeficiency virus 1, MT2, read-out: EC50 Y181C variant), 240 nM. In the series with MT-2 human T-cells (human), this compound returned a CC50 of 21000 nM. The “ratio between variant and WT activities (Y181C/WT)” value in series [2] worked out at 14 fold.

For the compound `N#C/C=C/c1cccc(Oc2ccc(Cl)cc2OCCn2ccc(=O)[nH]c2=O)c1` [Compound 41, (E)-3-(3-(4-chloro-2-(2-(2,4-dioxo-3,4-dihydropyrimidin-1(2H)-yl)ethoxy)phenoxy)phenyl)acrylonitrile], the EC50 in series [1] (setting [4]) was found to be 1600 nM; in the series with WT HIV-1 (IIIB strain) (setting [5]) it was 5 nM; in series [2] (setting [6]), 370 nM.

With `N#C/C=C/c1cc(F)cc(Oc2ccc(Cl)cc2OCCn2ccc(=O)[nH]c2=O)c1` [JLJ505], the EC50 in series [1] (setting [7]) came out at 900 nM; with WT HIV-1 (IIIB strain) (setting [8]), 3.2 nM; in the series with WT HIV-1 (IIIB strain) (setting [9]) it was 3.2 nM; in series [2] (setting [12]), 150 nM. Further, the 50% cytotoxic concentration (CC50) with MT-2 human T-cells (setting [10]) was over 48000 nM; in the series with MT-2 human T-cells (setting [11]) it was at least 48000 nM.

For the compound `N#C/C=C/c1cc(F)cc(Oc2ccc(F)cc2OCCn2ccc(=O)[nH]c2=O)c1` [JLJ506], the EC50 worked out at 85 nM in series [1] (setting [7]), 0.342 nM with WT HIV-1 (IIIB strain) (setting [8]), 0.342 nM in the series on WT HIV-1 (IIIB strain) (setting [9]) and 16 nM in series [2] (setting [12]). Moreover, the values for the CC50 with MT-2 human T-cells (setting [10]) and in the series with MT-2 human T-cells (setting [11]) were over 45000 nM and at least 45000 nM, respectively.

`N#C/C=C/c1cc(F)cc(Oc2ccccc2OCCn2ccc(=O)[nH]c2=O)c1` [JLJ510]: the EC50 in series [1] (setting [7]) stood at 75 nM; in the series on WT HIV-1 (IIIB strain) (setting [8]), 0.9 nM; with WT HIV-1 (IIIB strain) (setting [9]) it was 0.9 nM; in series [2] (setting [12]) it was 80 nM. Also, the CC50 in the series on MT-2 human T-cells (setting [10]) worked out at 70000 nM; in the series with MT-2 human T-cells (setting [11]) it was 85000 nM.

Turning to `N#C/C=C/c1cc(Cl)cc(Oc2ccc(F)cc2OCCn2ccc(=O)[nH]c2=O)c1` [JLJ516], the EC50 in series [1] (setting [7]) worked out at 250 nM; with WT HIV-1 (IIIB strain) (setting [8]), 0.77 nM; in the series with WT HIV-1 (IIIB strain) (setting [9]), 0.77 nM; in series [2] (setting [12]) it was 60 nM. Further, the CC50 in the series with MT-2 human T-cells (setting [10]) turned out to be 62000 nM; in the series on MT-2 human T-cells (setting [11]), 63000 nM.

Take `N#C/C=C/c1cc(Cl)cc(Oc2ccccc2OCCn2ccc(=O)[nH]c2=O)c1` [JLJ532]: the EC50 was 24 nM in series [1] (setting [7]), 0.31 nM with WT HIV-1 (IIIB strain) (setting [8]), 0.31 nM with WT HIV-1 (IIIB strain) (setting [9]) and 46 nM in series [2] (setting [12]). The results for the CC50 in the series with MT-2 human T-cells (setting [10]) and in the series with MT-2 human T-cells (setting [11]) were 18000 nM and 11000 nM, respectively.

Regarding `Cc1cc2cc(Oc3cc(Cl)ccc3OCCn3ccc(=O)[nH]c3=O)ccc2o1` [JLJ538], the EC50 in the series with WT HIV-1 (IIIB strain) (setting [13]) turned out to be 25 nM. It took 8000 nM to reach half-maximal cytotoxicity in series [3] (CC50).

As for `O=c1ccn(CCOc2ccc(Cl)cc2Oc2ccc3occc3c2)c(=O)[nH]1` [JLJ539], in the series on WT HIV-1 (IIIB strain) (setting [13]), the EC50 was 800 nM. Moreover, half-maximal cytotoxicity in series [3] (CC50) was put at 19000 nM.

For the compound `O=c1ccn(CCOc2ccccc2Oc2ccc3[nH]ccc3c2)c(=O)[nH]1` [JLJ547], the EC50 in the series with WT HIV-1 (IIIB strain) (setting [13]) was determined as 85 nM. In series [3], the half-maximal cytotoxic concentration (CC50) was determined as 53000 nM.

On to `Cc1cc2cc(Oc3ccccc3OCCn3ccc(=O)[nH]c3=O)ccn2c1` [JLJ550], for which the EC50 in the series with WT HIV-1 (IIIB strain) (setting [13]) was 50 nM. In series [3], this compound returned a half-maximal cytotoxic concentration (CC50) of 9000 nM.

Consider `O=c1ccn(CCOc2ccc(Cl)cc2Oc2ccc3ccoc3c2)c(=O)[nH]1` [JLJ552], for which the EC50 with WT HIV-1 (IIIB strain) (setting [13]) came out at 900 nM. The compound further gave a CC50 in series [3] of 50000 nM.

As for `N#Cc1cc2cc(Oc3ccccc3OCCn3ccc(=O)[nH]c3=O)ccn2c1` [JLJ555], the EC50 with WT HIV-1 (IIIB strain) (setting [13]) worked out at 0.38 nM. For the same compound, in series [3], the CC50 was over 100000 nM.
